Measured values as given in patent US10722593B2, “Anti-cancer compounds and conjugates thereof” (SIRENAS LLC, priority 2015, dated 2020).
Square brackets hold non-standard residues; d marks the D form. Peptide text beside a SMILES is read from it. * marks the point of attachment. Dolaproine = CO[C@@H]([C@@H]1CCCN1)[C@@H](C)C(=O)O; Dil = CC[C@H](C)[C@H](NC)[C@@H](CC(=O)O)OC; dVal(3-OH) = CC(C)(O)[C@@H](N)C(=O)O; Val(3-OH) = CC(C)(O)[C@H](N)C(=O)O; Doe = c1ccc(C[C@H](N*)c2nccs2)cc1; X1 = C[C@@H](N*)[C@@H](O)c1ccccc1; NMeV = CN[C@H](C(=O)O)C(C)C; NMeAib = CNC(C)(C)C(=O)O; Aib = CC(C)(N)C(=O)O

Key:
Type in all cases: cell-based
[1] = tested on: MES-SA (human uterine sarcoma) cells; assay: Inhibitory response against MES-SA cells (Cell Titer-Glo); conditions: 72 hours of culture, inhibition of cell growth
Experimental: (§1) MES-SA (human uterine sarcoma) cells were seeded in a clear polystyrene 96-well microculture plate (Corning® Costar® 96-well flat bottom plate, Cat. #3997) in a total volume of 90 μL/well. After 24 hours of incubation in a humidified incubator at 37° C. with 5% CO2 and 95% air, 10 μL of 10×, serially diluted test agents in growth medium were added to each well (10 pt dose response curve, highest concentration 10 μM of test agent). After 72 hours of culture in a humidified incubator at 37° C., in an atmosphere of 5% CO2 and 95% air, the plated cells and Cell Titer-Glo® (Promega G7571) reagents were brought to room temperature to equilibrate for 30 minutes. 100 μL of Cell Titer-Glo® reagent was added to each well. The plate was shaken for two minutes and then left to equilibrate for ten minutes. The media/Cell Titer-Glo® reagent was transferred to a white polystyrene 96-well microculture plate (Corning® Costar® 96-well flat bottom plate, Cat. #3917) before reading luminescence on a Tecan GENios microplate reader.
Percent inhibition of cell growth is calculated relative to untreated control wells. The IC50 value for the test agents is determined using Prism 6.05 by curve-fitting of the data using the following four parameter-logistic equation:
(§2) [formula] where Top is the maximal % of control absorbance, Bottom is the minimal % of control absorbance at the highest agent concentration, Y is the % of control absorbance, X is the agent concentration, IC50 is the concentration of agent that inhibits cell growth by 50% compared to the control cells, and n is the slope of the curve.

[2] = tested on: BT-474 human mammary gland ductal carcinoma cells; assay: Inhibitory response against BT-474 cells (Cell Titer-Glo); conditions: 72 hours of culture, inhibition of cell growth
Experimental: as §1, with “BT-474 human mammary gland ductal carcinoma” for “MES-SA (human uterine sarcoma)”, “[…]” for “μM”
(§3) Percent inhibition of cell growth was calculated relative to untreated control wells. The IC50 value for the test agents was determined using Prism 6.05 by curve-fitting of the data using the following four parameter-logistic equation:
as §2

HCC1954 cells = assay: Inhibitory response against HCC1954 cells (method analogous to BT-474); conditions: Homo sapiens, inhibition of cell growth
Experimental: as §1, with “BT-474 human mammary gland ductal carcinoma” for “MES-SA (human uterine sarcoma)”, “[…]” for “μM”
as §3, §2
Inhibitory response of test compounds against HCC1954 cells was determined using a method analogous to that used for BT-474 cells.

[3] = tested on: MES-SA/Dx (multidrug-resistant human uterine sarcoma) cells; assay: Inhibitory response against MES-SA/Dx cells (Cell Titer-Glo); conditions: 72 hours of culture, inhibition of cell growth
Experimental: MES-SA/Dx (multidrug-resistant human uterine sarcoma) cells are seeded in a clear polystyrene 96-well microculture plate in a total volume of 90 μL/well. After 24 hours of incubation in a humidified incubator at 37° C. with 5% CO2 and 95% air, 10 μL of 10×, serially diluted test agents in growth medium are added to each well. After 72 hours of culture in a humidified incubator at 37° C., in an atmosphere of 5% CO2 and 95% air, the plated cells and Cell Titer-Glo® (Promega G7571) reagents are brought to room temperature to equilibrate for 30 minutes. 100 μL of Cell Titer-Glo® reagent are added to each well. The plate is shaken for two minutes and then left to equilibrate for ten minutes. The media/Cell Titer-Glo® reagent is transferred to a polystyrene 96-well microculture plate before reading luminescence on a Tecan GENios microplate reader.
Percent inhibition of cell growth is calculated relative to untreated control wells. The IC50 value for the test agents is determined using Prism 6.05 by curve-fitting of the data using the following four parameter-logistic equation: […]

| SMILES | IC50 [1] [nM] | IC50 [2] [nM] | IC50 (HCC1954 cells) [nM] | IC50 [3] [nM] |
| --- | --- | --- | --- | --- |
| CC[C@H](C)[C@@H]([C@@H](CC(=O)N1CCC[C@H]1[C@H](OC)[C@@H](C)C(=O)N[C@@H](Cc1ccccc1)c1nccs1)OC)N(C)C(=O)[C@@H](NC(=O)[C@H](C(C)C)N(C)C)C(C)(C)O [Compound 101] | 0.035 | 0.0022 | 0.004 | 6.37 |
| CC[C@H](C)[C@@H]([C@@H](CC(=O)N1CCC[C@H]1[C@H](OC)[C@@H](C)C(=O)N[C@@H](Cc1ccccc1)c1nccs1)OC)N(C)C(=O)[C@@H](NC(=O)C(C)(C)NC)C(C)(C)O [Compound 107] (H-[NMeAib][Val(3-OH)][Dil][Dolaproine]-Doe) | – | 0.064 | 0.03 | – |
| CC[C@H](C)[C@@H]([C@@H](CC(=O)N1CCC[C@H]1[C@H](OC)[C@@H](C)C(=O)N[C@H](C)[C@@H](O)c1ccccc1)OC)N(C)C(=O)[C@@H](NC(=O)[C@H](C(C)C)N(C)C)C(C)(C)O [Compound 108] | – | 0.14 | 0.46 | – |
| CC[C@H](C)[C@@H]([C@@H](CC(=O)N1CCC[C@H]1[C@H](OC)[C@@H](C)C(=O)N[C@H](C)[C@@H](O)c1ccccc1)OC)N(C)C(=O)[C@@H](NC(=O)[C@@H](NC)C(C)C)C(C)(C)O [Compound 109] (H-[NMeV][Val(3-OH)][Dil][Dolaproine]-X1) | 14.9 | 26.1 | 10.9 | – |
| CC[C@H](C)[C@@H]([C@@H](CC(=O)N1CCC[C@H]1[C@H](OC)[C@@H](C)C(=O)N[C@H](C)[C@@H](O)c1ccccc1)OC)N(C)C(=O)[C@@H](NC(=O)C(C)(C)NC)C(C)(C)O [Compound 110] (H-[NMeAib][Val(3-OH)][Dil][Dolaproine]-X1) | 4.18 | 9.09 | 2.92 | – |
| CC[C@H](C)[C@@H]([C@@H](CC(=O)N1CCC[C@H]1[C@H](OC)[C@@H](C)C(=O)N[C@@H](Cc1ccccc1)c1nccs1)OC)N(C)C(=O)[C@H](CSC)NC(=O)C(C)(C)NC [Compound 111] (H-[NMeAib]C(Me)[Dil][Dolaproine]-Doe) | – | 0.863 | 0.0656 | – |
| CC[C@H](C)[C@@H]([C@@H](CC(=O)N1CCC[C@H]1[C@H](OC)[C@@H](C)C(=O)N[C@@H](Cc1ccccc1)c1nccs1)OC)N(C)C(=O)[C@@H](NC(=O)C(C)(C)N)C(C)(C)O [Compound 113] (H-[Aib][Val(3-OH)][Dil][Dolaproine]-Doe) | – | 1.22 | 1.24 | – |
| CC[C@H](C)[C@@H]([C@@H](CC(=O)N1CCC[C@H]1[C@H](OC)[C@@H](C)C(=O)N[C@@H](Cc1ccccc1)c1nccs1)OC)N(C)C(=O)[C@H](NC(=O)C(C)(C)NC)C(C)(C)O [Compound 114] (H-[NMeAib][dVal(3-OH)][Dil][Dolaproine]-Doe) | – | 0.0616 | 0.017 | – |
